How the values were obtained:
C57BI/6 mice = assay: Locomotor chambers and Morris water maze after LPS in mice; format: in vivo, mouse; settings: for distance swum to hidden platform in training, NSAID alone: first training session, no LPS; for probe trial performance, NSAID alone: no LPS challenge
Procedure: Behavioral testing. Locomotor activity was measured in 17×17 inch chambers lined with three 16-beam infrared arrays in photocell boxes (MED Associates, Inc., St. Albans, Vt.). The mice were placed into the chambers and their locomotor activity was recorded for 20 minutes 4 days after LPS was injected (on Day 4). A 50 msec scanning rate was used for measuring beams broken. Distance traveled was analyzed for estimates of locomotion based on the movement of a given distance and resting delay (movement in a given period) using Open Field Activity software (MED Associates, Inc., St. Albans, Vt.).
Hippocampus-dependent learning and memory was assessed in the standard Morris water maze task. All hippocampus-dependent training and testing was conducted in a black circular tank (170 cm diameter×43 cm height) filled water made opaque using white non-toxic Tempra paint (Rich Art Color Co. Inc, Northvale, Calif.; training and testing). A platform (13 cm diameter×28.5 cm height) was hidden 1 cm below the water surface for platform shaping and training trials. Time and distance traveled in the pool was recorded using Videotrack Automated Behavioral Analysis System (Viewpoint Life Sciences Inc., Otterburn Park, Quebec).
Platform shaping began three days before platform training (Days 25-27). In the absence of extra-maze cues, mice were released from random points in the pool (filled with clearwater) near the platform and gently guided to the platform. Shaping trials continued until the mouse remained on the platform for 15 s over 3 consecutive trials on each of the three sessions.
[…] In the presence of extra-maze cues, the mice were released from the middle of the east, south, or west quadrant, facing the pool wall, and were given 120 s to find the platform hidden beneath opaque water in the center of the north quadrant. […] Sessions of 6 training trials (inter-trial interval of approximately 30 min) were conducted daily until all the mice located the platform in an average of 15 s or less within a session. […] Pathlength and latency were analyzed as measures of learning, swim speed was analyzed as a measure of sensorimotor ability and % time spent in outer annulus was analyzed as a measure of anxiety.
Probe Trial Testing was conducted at 1 week after mice reached criterion in the platform training phase of the experiment. The room setup was identical for platform training and probe trials, with the exception that the platform was removed from the pool during probe trials. The mice were given a single trial in which they were released from the center of the pool and then after 3 minutes were removed from the location that held the platform during training trials. Percent time and distance spent in each quadrant were analyzed as measures of memory, swim speed and total distance swum were analyzed as measures of sensorimotor ability and % time and distance spent in the outer annulus were analyzed as measures of anxiety. After the last probe trial, we ran four daily sessions of reversal trials (4 trials per session) in which mice were given 120 s to locate the platform hidden beneath opaque water in the south quadrant to better interpret whether probe trial performance was indicative of memory or perseveration. […] A visible platform session (2 trials) was administered after the final reversal trial to further test sensorimotor ability. Reversal and visible platform trial performance was scored identically to platform training performance.

[1] = tested on: adult hippocampus-derived neural precursor cells; assay: In vitro neuronal differentiation (doublecortin) of hippocampal neural progenitor cells, 60 hours; format: cell-based, rat; settings: for effect on in vitro neurogenesis (Dcx-expressing cells relative to control): 60 hours differentiation
Excerpt: Neuroinflammation could inhibit neurogenesis by a variety of mechanisms, including stimulation of the HPA axis with subsequent elevation of gluccocorticoids, alterations in the relationships between progenitor cells and cells of the neuro-vasculature, or direct effects of activated microglia on the precursor cells. To determine the extent to which microglial activation might directly affect neural stem/progenitor cells, microglia were stimulated in vitro with LPS. LPS is a potent activator of microglia and up-regulates the elaboration of pro-inflammatory cytokines, including IL-6 and TNF-α. LPS-stimulated or resting microglia were then co-cultured with normal neural stem cells from the hippocampus under conditions that typically stimulate the differentiation of 30 to 40% of the progenitor cells into immature Dcx-expressing neurons (normalized to a value of 1 in FIG. 2A, control). Neurogenesis in the presence of microglia was assessed as the increase or decrease in Dcx-expressing cells relative to control. Co-culture with activated, but not resting, microglia decreased in vitro neurogenesis to approximately half of control levels (FIG. 2A). LPS added directly to precursor cells had no effect on neurogenesis.
To determine if this effect was due to soluble factors or due to cell-cell contact, hippocampal precursor cells were differentiated in the presence of media pre-conditioned by resting or activated microglia.
Activated microglia produce the potent pro-inflammatory cytokines interleukin-1β (IL-1β), tumor necrosis factor-α (TNF-α), interferon-γ (INF-γ) and interleukin-6 (IL-6). Progenitor cells were allowed to differentiate in the presence of each cytokine and the relative expression of Dcx was scored after 60 hours. […] Addition of neutralizing anti-IL-6 antibody to CM from activated microglia was able to fully restore in vitro neurogenesis (FIG. 2A). This implicated IL-6 as a key inhibitor of neurogenesis in microglial CM. […] In contrast to neurogenesis, gliogenesis was unaffected by IL-6 exposure as indicated by the lack of change in the number of cells expressing the astrocyte (glial fibrillary acidic protein, GFAP) or early oligodendrocyte (NG2) markers relative to control cultures (FIG. 2E). The hippocampal precursors used in this study do express the IL-6 receptor, as confirmed by RT-PCR (FIG. 5).
Progenitor Cell Culture Adult hippocampus-derived neural precursor cells were isolated from adult rat hippocampus and cultured as previously described. Briefly, adult female Fisher-344 rats were deeply anesthetized with sodium pentobarbital and were dissected immediately. Hippocampi were enzymatically dissociated with papain (2.5 U/ml; Worthington, Freehold, N.J.)-dispase II (1 U/ml; Boehringer Mannheim, Indianapolis, Ind.)-DNase I (250 U/ml, Worthington) solution. Digested tissue was then washed with DMEM-10% fetal calf serum (FCS) and subsequently mixed with PBS-equilibrated Percoll solution to a final concentration of 35% Percoll. The Percoll solution was made by mixing nine parts of Percoll (Amersham Pharmacia Biotech, Uppsala, Sweden) with one part of 10× PBS. The cell suspension was then fractionated by centrifugation for 10 min at 1000×gravity. Floating myelin and tissue debris were discarded and the cell pellet re-suspended in 65% Percoll solution and fractionated again by centrifugation for 10 min at 1000×g. The floating neural precursors were collected, washed free of Percoll, and plated onto poly-L-ornithine/laminin-coated dishes in DMEM/F12 (1:1) containing 10% FCS medium for 24 hrs; then medium was replaced with serum-free growth medium consisting of DMEM/F12 (1:1) supplemented with N2 supplement (Life Technologies, Gaithersburg, Md.) and 20 ng/ml of human recombinant FGF-2 (Peprotech, Rocky Hill, N.J.). Cell lines were labeled via infection with replication deficient GFP-expressing recombinant retrovirus LZRS-CAMut4GFP. […]

neural progenitor cells = assay: Differentiation of mouse neural progenitor cells with recombinant MCP-1, 5 days; format: cell-based; settings: rmMCP-1 up to 100 ug/ml
Procedure: To determine if MCP-1 was acting directly on neural progenitor cells to mediate these effects, brains from wild type, MCP-1^−/−, or CCR2^−/− mice were enzymatically dissociated and neurosphere cultures established in growth medium (Neurobasal-A, B27 supplement, 10 ng/ml EGF, 20 ng/ml FGF-2). Neurospheres were dissociated at passage 2-3 and plated as monolayers on laminin coated dishes and then induced to differentiate by replacing growth medium with differentiation medium (Neurobasal-A, B27, 1 ng/ml FGF-2, 100 nM all-trans retinoic acid, 10 ng/ml BDNF, 10 ng/ml NT3). Increasing concentrations of recombinant mouse MCP-1 (rmMCP-1) were added to the medium and cells were allowed to differentiate for 5 days. Cells were then fixed and stained for Dcx (FIG. 11C-C). Within 5 days of differentiation, a proportion of cells became positive for Dcx. […] Similarly, addition of rmMCP-1 up to a final concentration of 100 ug/ml had no effect on the number of neurons produced.
Progenitor Cell Culture and Differentiation Whole brains from PO mouse pups were enzymatically digested with a mixture of papain, neutral protease, and DNAse. Neurospheres were cultured on uncoated plates with medium containing Neurobasal A (Gibco), L-glutamine, PSF, B-27 without vitamin A, 40 ng/ml FGF-2, and 40 ng/ml EGF. Cultures were passaged in parallel when reaching confluence and total viable cell counts were made using a hemocytometer to score trypan blue-excluding cells at each passage. Cells were induced to differentiate by plating dissociated cells into laminin-coated multi-chamber tissue culture slides (Nunc) in differentiation media, Neurobasal A, B-27 without vitamin A, 1% fetal bovine serum, 100 nM all trans-retinoic acid, 1 ng/ml FGF-2, 10 ng/ml BDNF, and 10 ng/ml NT3. […] Total nuclei per sample site was scored using DAPI, neurons were scored on the basis of Dcx immunoreactivity. No significant differences were detected in either growth or differentiation between wild type and MCP-1^−/− or CCR2^−/− mice

Cc1ccc(-c2cc(C(F)(F)F)nn2-c2ccc(S(N)(=O)=O)cc2)cc1 [Celebrex, celecoxib]
distance swum to hidden platform in training, NSAID alone (C57BI/6 mice): slight but significant increased distance swum
distance swum to hidden platform in training, NSAID alone (C57BI/6 mice; listed as celebrex): slight but significant initial increase in swimming distance
probe trial performance, NSAID alone (C57BI/6 mice): performed as badly as LPS-treated mice
probe trial performance, NSAID alone (C57BI/6 mice; listed as celebrex): alone significantly impaired memory

TNF-α
decrease of in vitro neurogenesis (relative expression of Dcx) ([1]; recombinant IL-6 50 ng/ml or TNF-α 20 ng/ml, 60 hours): approximately 50%

rmMCP-1: recombinant mouse monocyte chemoattractant protein-1 (Peprotech)
extent of neuronal arborization (neural progenitor cells): Neither was the extent of arborization influenced
number of Dcx-positive neurons produced (neural progenitor cells): no effect
number of Dcx-positive neurons produced (neural progenitor cells; listed as MCP-1): does not directly affect

B1: INF-γ: recombinant rat interferon γ (protein, UniProt P01581 23-156, looked up)
Interferon gamma: QGTLIESLESLKNYFNSSSMDAMEGKSLLLDIWRNWQKDGNTKILESQIISFYLRLFEVLKDNQAISNNISVIESHLITNFFSNSKAKKDAFMSIAKFEVNNPQIQHKAVNELIRVIHQLSPESSLRKRKRSRC
effect on in vitro neurogenesis (Dcx-expressing cells relative to control) [1]: not significant

B2: IL-1β: recombinant rat interleukin 1β (protein, UniProt Q63264 117-268, looked up)
Interleukin-1 beta: VPIRQLHCRLRDEQQKCLVLSDPCELKALHLNGQNISQQVVFSMSFVQGETSNDKIPVALGLKGLNLYLSCVMKDGTPTLQLESVDPKQYPKKKMEKRFVFNKIEVKTKVEFESAQFPNWYISTSQAEHRPVFLGNSNGRDIVDFTMEPVSS
effect on in vitro neurogenesis (Dcx-expressing cells relative to control) [1]: not significant
